In series [1] the test system is MCF-7 (human breast carcinoma). In words: MTT assay, MCF-7. The format is cell-based. Particulars: for IC50: MTT assay, MCF-7, read-out: IC50 (±SD), MCF-7; for Selectivity index (SI), MCF-7: IC50 HDF / IC50 MCF-7. How it is done:
(§1) All the cell lines and mediums were obtained from the American Type Culture Collection (ATCC) supplied by LGC-Standards (Lomianki, Poland). Human cancer cell lines were cultured as follows: HeLa (human cervix carcinoma) and KB (human oral squamous carcinoma) lines were cultured in DMEM (Dulbecco’s Modified Eagle’s Medium); MCF-7 (human breast carcinoma) and A-549 (human lung carcinoma) were cultured in RPMI 1640 medium; PC-3 (human prostate carcinoma) was cultured in F-12K medium; SKOV-3 (human ovarian cystadenocarcinoma) was cultured in McCoy’s modified medium; HDF (human normal dermal fibroblasts) was cultured in Fibroblast Basal Medium. Each medium was supplemented with 10% fetal bovine serum, 1% L- glutamine and 1% penicillin/streptomycin solution. The cell lines were kept in an incubator at 37 °C.
(§2) All the tested cell lines (HeLa, KB, MCF-7, A-549, PC-3, SKOV-3 and HDF) were subjected to MTT assay. In short, this assay is based on the reaction between mitochondria enzymes (dehydrogenases) of tested cell lines and 3-(4,5-dimethylthiazol-2-yl)-2,5-diphenyltetrazolium bromide (MTT). The final product of this reaction gives violet formazan crystals. The number of live cells is proportional to the amount of formazan and is represented by the violet dye reagent. The details of the experiments are given in [19].
Background: Tetrazolium dyes change colour on reduction, which living cells bring about.

In series [2] the test system is PC-3 (human prostate carcinoma). In words: MTT assay, PC-3. It is filed as cell-based. Particulars: for IC50: MTT assay, PC-3, read-out: IC50 (±SD), PC-3; for Selectivity index (SI), PC-3: IC50 HDF / IC50 PC-3. How it is done: as §1, §2
The subject of series [3] is HDF (human dermal fibroblasts). In words: MTT assay, normal HDF. The format is cell-based. Particulars: read-out: IC50 (±SD), HDF. How it is done: as §1, §2
For series [4], the system named is HeLa (human cervical epithelioid carcinoma). In words: MTT assay, HeLa. It is filed as cell-based. The settings on record: for IC50: MTT assay, HeLa, read-out: IC50 (±SD), HeLa; for Selectivity index (SI), HeLa: IC50 HDF / IC50 HeLa. How it is done: as §1, §2
Series [5] relates to A-549 (human lung carcinoma). In words: MTT assay, A-549. The format is cell-based. Particulars: for IC50: MTT assay, A-549, read-out: IC50 (±SD), A-549; for Selectivity index (SI), A-549: IC50 HDF / IC50 A-549. How it is done: as §1, §2
Series [6] can be described thus: CUPRAC antioxidant assay. Particulars: calculated from Trolox standard curve. How it is done:
(§3) The results are presented as % inhibition of the copper(II) ions and Trolox equivalent calculated from the standard curve (Figure 9) and as % inhibition of the DPPH radical and Trolox equivalent, calculated from the standard curve (Figure 10).
(§4) The CUPRAC reagent (7.5 mM ethanolic 96% neocuproine solution, 10 mM CuCl2 × H2O solution and an ammonium acetate buffer of pH 7.0) and DPPH reagent (2,2-diphenyl-1-picrylhydrazyl 0.2 mM solution) were applied.
(§5) The CUPRAC method measures the reducing power of a sample by quantifying its ability to convert the Cu-neocuproine reagent complex to the Cu(I) form. In contrast, the DPPH assay relies on the ability of an antioxidant to donate a hydrogen atom or an electron to the stable DPPH radical, resulting in its reduction and subsequent color change. The results are presented as % inhibition of the copper(II) ions and Trolox equivalent calculated from the standard curve (Figure 9) and as % inhibition of the DPPH radical and Trolox equivalent, calculated from the standard curve (Figure 10). The spectroscopic detection in CUPRAC and DPPH assays was conducted with Synergy H1 Multi-Mode Microplate Reader (BioTek Instruments, Inc., Winooski, VT, USA). The details of the experiments are given in [102].

The subject of series [7] is SKOV-3 (human ovarian carcinoma). In words: MTT assay, SKOV-3. It is filed as cell-based. Particulars: for IC50: MTT assay, SKOV-3, read-out: IC50 (±SD), SKOV-3; for Selectivity index (SI), SKOV-3: IC50 HDF / IC50 SKOV-3. How it is done: as §1, §2
Series [8] has as its system KB (human oral squamous carcinoma). In words: MTT assay, KB. The format is cell-based. The settings on record: for IC50: MTT assay, KB; for Selectivity index (SI), KB: IC50 HDF / IC50 KB. Here is the method:
as §1, §2

Series [9] in a line: DPPH antioxidant assay. Particulars: calculated from Trolox standard curve. Here is the method:
as §3, §4, §5

Series [10] relates to PC-3. In words: Apoptosis assay (Cell Death Detection ELISA Plus), PC-3. The settings on record: PC-3, 4 h incubation, enrichment of mono- and oligonucleosomes vs negative control. The format is cell-based, human. How it is done:
(§6) The induction of apoptosis by tested compounds was determined with Cell Death Detection ELISA Plus from Roche Diagnostics GmbH (Mannheim, Germany).
(§7) Cell Death Detection ELISA Plus is an enzyme immunoassay for determining cytoplasmic histone-associated DNA fragments (mono- and […]) after induced cell death. Cells (10^4) were pipetted into wells of 96-well plates, and test compounds were added at final concentrations of 0.1, 1.0 and 10.0 µg × mL^−1. Cells incubated in the absence of test compounds served as negative controls. After 4 h of incubation, cells were harvested by centrifugation of the plates for 10 min at 200× g. Supernatants were removed carefully, and cell pellets were resuspended in 200 µL of cell lysis buffer and incubated for 30 min at room temperature. After centrifugation of the plates (10 min at 200× g), 20 µL of cell lysates was transferred in duplicate into wells of provided streptavidin-coated microplates. Then, 80 µL of the immunoreagent containing a mixture of anti-histone-biotin monoclonal antibody and anti-DNA-peroxidase monoclonal antibody was added to each well. The microplates were covered with a provided adhesive foil and incubated for 2 h at room temperature. Thereafter, the solution in the wells was removed by tapping the microplate. The wells were rinsed three times with incubation buffer, and 100 µL of substrate (2,2′-azino-bis [3-ethylbenzothiazoline-6-sulphonic acid], ABTS) was added to each well. After 10–20 min, 100 µL of ABTS stop solution was pipetted to each well, and the absorbance was read at 405 nm (test wavelength) and 490 nm (reference wavelength). The apoptotic index was calculated based on the enrichment of mono- and oligonucleosomes according to the following equation:apoptotic index = [{A405(sample) − A490(sample)}/{A405(negative control) − A490(negative control)}]

Series [11] concerns HeLa, KB, MCF-7, A-549, PC-3 and SKOV-3. In words: MTT assay, summary over the cancer cell lines. It is filed as cell-based, human. Here is the method: as §1, §2
Series [12] concerns SKOV-3. In words: Apoptosis assay (Cell Death Detection ELISA Plus), SKOV-3. The settings on record: SKOV-3, 4 h incubation, enrichment of mono- and oligonucleosomes vs negative control. It is filed as cell-based, human. Here is the method:
as §6, §7

A word on the IC50: it is the concentration needed to halve the response being measured.

Several values for one entry are separate records, joined by “and”; a condition that tells them apart may be missing. Equal values may be shown once. Read-outs that look alike come from different tables or passages of the source.

Consider `CC(=O)OCC12CCC(C)(C)CC1C1=CCC3C4(C)CCC(OC(C)=O)C(C)(C)C4CCC3(C)C1(C)CC2` (stereo not shown) [2b, 3,28-di-O-Acetylerythrodiol], for which the IC50 in [1] (Homo sapiens, MCF7) is 61.6 µM; in series [2] (Homo sapiens), 25.1 µM; in series [3] (Homo sapiens, Fibroblast), 53.1 µM; in series [4] (Homo sapiens), 70.3 µM; in [5] (Homo sapiens, A549) it was 51.6 µM; in [7] (Homo sapiens, SK-OV-3), 25.5 µM. This compound yielded an IC50 in series [8] (Homo sapiens) of 50 µM. Also, the “Selectivity index (SI), MCF-7” value in series [1] worked out at 0.86. For the same compound, the “Selectivity index (SI), PC-3” value in series [2] was found to be 2.11. In addition, the “Selectivity index (SI), HeLa” value in [4] amounted to 0.75. Also, in series [5], the “Selectivity index (SI), A-549” value came out at 1.03. Also, the “Trolox Equivalent, CUPRAC Assay” value in [6] is 0.2402 mg/mL and 0.2402 ± 0.00995 mg/mL. Moreover, the “Selectivity index (SI), SKOV-3” value in [7] worked out at 2.08. For the same compound, in series [8], the “Selectivity index (SI), KB” value was found to be 1.06. Also, the “Trolox Equivalent, DPPH Assay” value in [9] is 0.00313 ± 0.00013 mg/mL.

As to `CC1(C)CC[C@]23CC[C@]4(C)[C@H](CC[C@@H]5[C@@]6(C)CC[C@H](O)C(C)(C)[C@@H]6CC[C@]54C)[C@H]2[C@H]1OC3` [3a, allobetulin], the IC50 was 71.1 µM in series [1] (Homo sapiens, MCF7); 20.2 µM in series [2] (Homo sapiens); 48.2 µM in [3] (Homo sapiens, Fibroblast); 49.4 µM in [4] (Homo sapiens); 51.7 µM in series [5] (Homo sapiens, A549); 20 to 70 µM in series [11] (Homo sapiens, MTT assay, range over tested cancer cell lines). Moreover, the 50% inhibitory concentration (IC50) in series [7] (Homo sapiens, SK-OV-3) was 20.9 µM; in series [8] (Homo sapiens), 45.3 µM. The “Selectivity index (SI), MCF-7” value in series [1] is 0.68. For the same compound, the “Selectivity index (SI), PC-3” value in series [2] is 2.39. Besides, the “Selectivity index (SI), HeLa” value in series [4] was 0.97. Also, the “Selectivity index (SI), A-549” value in [5] turned out to be 0.93. The “Trolox Equivalent, CUPRAC Assay” value in series [6] was 0.08248 mg/mL and 0.08248 ± 0.005 mg/mL. Further, the “Apoptotic index (AI), PC-3” value in series [10] is 5.27 (0.01). In addition, the “Apoptotic index (AI), SKOV-3” value in series [12] is given as 5.78 (0.01). Also, the “Selectivity index (SI), SKOV-3” value in [7] was found to be 2.30. Also, the “Selectivity index (SI), KB” value in [8] turned out to be 1.06. For the same compound, in [9], the “Trolox Equivalent, DPPH Assay” value is reported as 0.01677 ± 0.000694 mg/mL.

With `CC(=O)OC1CCC2(C)C(CCC3(C)C2CCC2C4C5OCC4(CCC5(C)C)CCC23C)C1(C)C` (stereo not shown) [3b, 3-O-Acetylallobetulin], the IC50 in series [1] was greater than 100 µM; in [2], 52.2 µM; in series [3] it was 62 µM; in series [4], greater than 100 µM; in [5], greater than 100 µM; in series [7] it was 53.1 µM. Moreover, the IC50 in series [8] is greater than 100 µM. In addition, the “Trolox Equivalent, CUPRAC Assay” value in series [6] is 0.03212 mg/mL and 0.03212 ± 0.00166 mg/mL. The “Trolox Equivalent, DPPH Assay” value in series [9] is 0.00182 mg/mL and 0.00182 ± 0.000755 mg/mL.

Take `C=C(C)C1CCC2(C(=O)O)CCC3(C)C(CCC4C5(C)CCC(OC(C)=O)C(C)(C)C5CCC43C)C12` (stereo not shown) [4b, 3-O-Acetylbetulinic acid]: the IC50 was found to be 1.5 µM in [1] (Homo sapiens, MCF7); 0.93 µM in [2] (Homo sapiens); 2.88 µM in series [3] (Homo sapiens, Fibroblast); 1.62 µM in [4] (Homo sapiens); 1.23 µM in series [5] (Homo sapiens, A549); 1.03 µM in series [7] (Homo sapiens, SK-OV-3). The same compound returned an IC50 in series [8] (Homo sapiens) of 1.5 µM. Moreover, the “Selectivity index (SI), MCF-7” value in [1] came to 1.92. Moreover, the “Selectivity index (SI), HeLa” value in series [4] is reported as 1.77. Also, the “Selectivity index (SI), A-549” value in series [5] is given as 2.34. In series [6], the “Trolox Equivalent, CUPRAC Assay” value is 0.1999 mg/mL and 0.1999 ± 0.0015 mg/mL. The “Apoptotic index (AI), PC-3” value in series [10] was 7.09 (0.01). Besides, the “cytotoxic activity class” value in series [11] (classification by IC50 (good ≤ 10 μM, moderate 10–30 μM, ref 83)) is “very high cytotoxic activity”. In addition, the “Apoptotic index (AI), SKOV-3” value in series [12] is on record as 7.81 (0.02). Also, in series [8], the “Selectivity index (SI), KB” value is on record as 1.92. The “Trolox Equivalent, DPPH Assay” value in series [9] is on record as 0.00376 ± 0.000156 mg/mL.

On to `C=C(C)[C@@H]1CC[C@]2(C)CC[C@]3(C)[C@H](CC[C@@H]4[C@@]5(C)CC[C@H](OC(C)=O)C(C)(C)[C@@H]5CC[C@]43C)[C@@H]12` [6b, 3-O-Acetylolupeol], for which the IC50 in [1] was 50 µM; in [2], 22.2 µM; in [3], 35 µM; in series [4], 72.6 µM; in series [5], 56.2 µM; in series [7], 21.1 µM. Moreover, in series [8], the IC50 came to 72.5 µM. The “Trolox Equivalent, CUPRAC Assay” value in series [6] is listed as 0.1349 ± 0.00514 mg/mL. For the same compound, the “Trolox Equivalent, DPPH Assay” value in series [9] was 0.00348 ± 0.000144 mg/mL.

(Values after publication PMC12196235, “Enhancing the Pharmacological Properties of Triterpenes Through Acetylation: An Anticancer and Antioxidant Perspective” (Molecules, 2025).)
